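Interpolation was linear, between the two tested concentrations surrounding the appropriate level; five concentrations were tested over 48 hours in 96-well plates. GI50 = concentration required for 50% inhibition of growth.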 Calls of active or inactive are those of the source. Rule as the data show it: active = GI50 up to about 1.1 µM and inactive = higher.
Experiments:
Test in all cases: DTP human tumour cell line panel, 48 h
KM-20L2 = test system: KM-20L2
DMS-114 = test system: DMS-114
OVCAR-3 = test system: OVCAR-3
OVCAR-5 = test system: OVCAR-5
SR = test system: SR
HCT-116 = test system: HCT-116
DLD-1 = test system: DLD-1
SF-539 = test system: SF-539
M19-MEL = test system: M19-MEL
TK-10 = test system: TK-10
OVCAR-8 = test system: OVCAR-8
A498 = test system: A498
OVCAR-4 = test system: OVCAR-4
RXF 631 = test system: RXF 631
SF-295 = test system: SF-295
CCRF-CEM = test system: CCRF-CEM
A549 = test system: A549
IGROV-1 = test system: IGROV-1
M14 = test system: M14
HCT-15 = test system: HCT-15
COLO 205 = test system: COLO 205
UO-31 = test system: UO-31
Malme-3M = test system: Malme-3M
HOP-18 = test system: HOP-18
MOLT-4 = test system: MOLT-4
EKVX = test system: EKVX
KM12 = test system: KM12
SNB-19 = test system: SNB-19
UACC-257 = test system: UACC-257
SK-MEL-5 = test system: SK-MEL-5
UACC-62 = test system: UACC-62
U-251 = test system: U-251
SF-268 = test system: SF-268
HOP-92 = test system: HOP-92
SNB-78 = test system: SNB-78
SW-620 = test system: SW-620
RXF 393 = test system: RXF 393
786-0 = test system: 786-0
SN12C = test system: SN12C
LXFL 529 = test system: LXFL 529
HL-60 = test system: HL-60
SK-MEL-2 = test system: SK-MEL-2
HCC 2998 = test system: HCC 2998
NCI-H460 = test system: NCI-H460
SK-MEL-28 = test system: SK-MEL-28
NCI-H522 = test system: NCI-H522
NCI-H23 = test system: NCI-H23
SNB-75 = test system: SNB-75
K562 = test system: K562
ACHN = test system: ACHN
HT-29 = test system: HT-29

## CC(C)=C1CCC(CN(C)C)C1=O (stereo unspecified)
KM-20L2
  GI50: 13.7 µM (inactive)
DMS-114
  GI50: 16.5 µM (inactive)
OVCAR-3
  GI50: 17.6 µM (inactive)
OVCAR-5
  GI50: > 100 µM (inactive)
SR
  GI50: 12.4 µM (inactive)
HCT-116
  GI50: 12.9 µM (inactive)
DLD-1
  GI50: 6.85 µM (inactive)
SF-539
  GI50: > 100 µM (inactive)
M19-MEL
  GI50: 47.2 µM (inactive)
TK-10
  GI50: 17.1 µM (inactive)
OVCAR-8
  GI50: 22.3 µM (inactive)
A498
  GI50: 19.6 µM (inactive)
OVCAR-4
  GI50: 15 µM (inactive)
RXF 631
  GI50: 13.6 µM (inactive)
SF-295
  GI50: > 100 µM (inactive)
CCRF-CEM
  GI50: 8.95 µM (inactive)
A549
  GI50: > 100 µM (inactive)
IGROV-1
  GI50: > 100 µM (inactive)
M14
  GI50: 14.4 µM (inactive)
HCT-15
  GI50: 14.8 µM
COLO 205
  GI50: 24.1 µM (inactive)
UO-31
  GI50: > 100 µM (inactive)
Malme-3M
  GI50: 16.3 µM (inactive)
HOP-18
  GI50: 22.1 µM (inactive)
MOLT-4
  GI50: 12.1 µM (inactive)
EKVX
  GI50: 17.7 µM (inactive)
KM12
  GI50: 29.7 µM (inactive)
SNB-19
  GI50: > 100 µM (inactive)
UACC-257
  GI50: 17.5 µM (inactive)
SK-MEL-5
  GI50: 15.6 µM (inactive)
UACC-62
  GI50: 18.1 µM (inactive)
U-251
  GI50: > 100 µM (inactive)
SF-268
  GI50: 31.5 µM (inactive)
HOP-92
  GI50: 20.9 µM (inactive)
SNB-78
  GI50: > 10 µM (inactive)
SW-620
  GI50: 6.12 µM (inactive)
RXF 393
  GI50: 18.6 µM (inactive)
786-0
  GI50: 12.6 µM (inactive)
SN12C
  GI50: 18.4 µM (inactive)
LXFL 529
  GI50: 12.8 µM (inactive)
HL-60
  GI50: 3.61 µM (inactive)
SK-MEL-2
  GI50: 26.3 µM (inactive)
HCC 2998
  GI50: 19.1 µM (inactive)
NCI-H460
  GI50: > 100 µM (inactive)
SK-MEL-28
  GI50: 18.2 µM (inactive)
NCI-H522
  GI50: 0.196 µM (active)
NCI-H23
  GI50: 35.7 µM (inactive)
SNB-75
  GI50: 0.234 µM (active)
K562
  GI50: 6.08 µM (inactive)
ACHN
  GI50: 17.7 µM (inactive)
HT-29
  GI50: 20.6 µM (inactive)
